Results from ChEMBL document CHEMBL1157539, “Thousands of chemical starting points for antimalarial lead identification” (Nature, 2010).

Test system: Plasmodium falciparum
Assay: GSK_TCMDC: Inhibition of Plasmodium falciparum 3D7 in whole erythrocytes, using parasite LDH activity as an index of growth.
Assay type: functional, organism-based
Details: Plasmodium falciparum, 3D7

SMILES | XC50 [nM]
CNc1nc(N/N=C/c2cc3c(cc2[N+](=O)[O-])OCO3)nc(Nc2cccc(C(F)(F)F)c2)n1 | 771
Nc1c2ccccc2nc2cc(Cl)ccc12 | 715
CCc1cc2c3c(N)nc(N)nc3ccc2n1C(C)CC (stereo not drawn) | 3.2
C=CCOc1ccccc1CNCC(O)c1cc(Br)cs1 (stereo not drawn) | 332
CC(C)N1CCC(N(Cc2ccc(-c3ccc(C(F)(F)F)cc3)cc2)C(=O)Cn2c(CCc3cccc(F)c3F)cc(=O)c3cn(C)nc32)CC1 | 1170
O[C@H]1[C@H](OCc2ccc(-c3ccccc3)cc2)CC[C@@H]1N1CCCCC1 | 1060
c1ccc(Oc2ccc(Nc3ccnc4cc(-c5cccc(CN6CCOCC6)c5)ccc34)cc2)cc1 | 336
N#Cc1ccc(N2CCN(Cc3ccc(-c4ccc(-c5nc6ccccc6[nH]5)s4)cc3)CC2)nc1 | 1080
CCCCCCN1CCCN(Cc2ccc(C(=O)Nc3ccc(C)c(F)c3)cc2)CC1 | 331
Cc1cc(-c2cccc(CNC3CCN(C)CC3)c2)ccc1S(=O)(=O)NC1CCC1 | 731
Cc1cc(NC(=O)c2cccs2)ccc1OC1CCN(Cc2ccc(C#N)cc2)C1 (stereo not drawn) | 847
O=S(=O)(NCCN1CCCC1)c1cccc(-c2ccc(CNCc3ccccc3)cc2)c1 | 1000
CCN(CC)CCCCCNc1c2ccc(Cl)cc2nc2ccc(OC)cc12 | 50.6
CCN(CC)CCCC(C)Nc1c(-c2ccc(OC)cc2)cnc2ccccc12 (stereo not drawn) | 894
Cc1nn(-c2ccnc3cc(Cl)ccc23)c(C)c1C(=O)NCc1cc(Cl)cc(Cl)c1 | 869
Cc1cccc(NC(=O)c2ccc(C(=O)NC3CCN(CC4CCCCC4)CC3)cc2)c1 | 805
O=[N+]([O-])c1cccc(CNCC2CCN(Cc3ccc(O)cc3)CC2)c1 | 666
COc1ccc(NC(C)C(=O)Nc2ccc(Br)cc2)cc1S(=O)(=O)N1CCCCC1 (stereo not drawn) | 221
O=C(/C=C/c1ccc(Cl)c(Cl)c1)NCCCCCN1CCCC(CNC(=O)Nc2ccc(C(F)(F)F)cc2)C1 (stereo not drawn) | 668
CS(=O)(=O)c1ccc(CNCc2ccc(-c3ccc(-c4nc5cc(F)ccc5[nH]4)s3)cc2)cc1 | 268
CN(C)CCN(Cc1ccccc1)c1ccc([N+](=O)[O-])cc1C(F)(F)F | 776
C=Cc1c(C2CCN(CCCCNC(=O)c3ccc(-c4ccc(C#N)cc4)cc3)CC2)ccc2c1CCCC2 | 878
Fc1ccc2[nH]c(-c3ccc(-c4cccc(CN5CCCCC5)c4)cc3)nc2c1 | 267
COc1cc(NC(=O)N2CCOC(CCN3CCC4(CCc5ccccc54)CC3)(c3ccc(Cl)c(Cl)c3)C2)cc(OC)c1OC (stereo not drawn) | 156
Cc1nnnn1-c1ccc(C(=O)N2CCC3(CC2)CN(Cc2ccc(Cl)c(Cl)c2)C(=O)O3)cc1 | 181

SMILES | XC50 [nM]
CCC(C)CN1CCC(N(C)c2cc(NC(=O)c3ccc(F)cc3)ccn2)CC1 (stereo not drawn) | 977
O=C(Nc1ccc(NC2=NCCN2)cc1)Nc1ccc(NC2=NCCN2)cc1 | 845
O=C(Nc1ccc(-c2cccc(-c3nc4cc(F)ccc4[nH]3)c2)cc1)c1cnn2cccnc12 | 647
CCc1ccc(-c2nc3cc(NC(=O)c4ccc([N+](=O)[O-])o4)ccc3o2)cc1 | 250
Cc1cc(C)cc(NC(=S)NCCCCN2CCN(c3cccc(Cl)c3)CC2)c1 | 1350
Fc1ccc2cc(C=Cc3ccncc3)[nH]c2c1 | 617
C[C@H](NC(=O)c1c(CN2CCC(N3CCCCC3=O)CC2)c(-c2cccs2)nc2ccccc12)C1CCCCC1 | 898
CCC(C)Oc1ccc(CCCON2C(N)=NC(N)=NC2(C)C)cc1 (stereo not drawn) | 3.2
COC(=O)c1cccc(CNCc2ccc(-c3ccc(-c4nc5cc(C(F)(F)F)ccc5[nH]4)cc3)cc2)c1 | 298
O=S(=O)(NC1CCC(CN2CCC(c3c[nH]c4ccccc34)CC2)CC1)c1ccc(Cl)c(Cl)c1 (stereo not drawn) | 817
Cn1cc(CN2CCCC(COC(c3ccc(F)cc3)c3ccc(F)cc3)C2)cn1 (stereo not drawn) | 571
Cc1ccc(S(C)(=O)=O)cc1/C=C/C(=O)O | 868
CNCc1cccc2nc(-c3ccc(Cc4cc(Cl)ccc4OCC(C)C)o3)[nH]c12 | 895
CC(C)CNCc1cccc(-c2cccc(CN(CCN(C)C)C(=O)NCCc3ccccc3)c2)c1 | 693
CC(C)(C)OC(=O)NCc1ccc(Nc2nnc(-c3cccc(OCC(=O)NCc4cc(C(F)(F)F)cc(C(F)(F)F)c4)c3)o2)cc1 | 832
CC(C)Oc1cc2c(cc1NS(=O)(=O)c1ccc(-c3ccc(Cl)s3)cc1F)CCN(C)CC2 | 712
O=C(/C=C/c1ccc(Cl)c(Cl)c1)NCCCCCN1CCC(NC(=O)c2ccc([N+](=O)[O-])cc2)CC1 | 672
Oc1c(CNC2CCCCC2)cc(Cl)c2ccccc12 | 838
O=C1CCCN1CCCNCc1cccc(-c2cccc(-c3nc4cc(F)ccc4[nH]3)c2)c1 | 598
Cc1cc(C(=O)NCc2ccc(-c3c(C)noc3C)cc2)n(-c2ccc(Cl)cc2)n1 | 531
Fc1ccc2[nH]c(-c3ccc(-c4cccc(CN5CCN(CCN6CCOCC6)CC5)c4)cc3)nc2c1 | 145
O=C(Nc1cccc(-c2cccc(-c3nc4cc(C(F)(F)F)ccc4[nH]3)c2)c1)c1c[nH]cn1 | 206
CCN1C(=O)N(CCC(C)C)C2(CCN(Cc3ccc(OC)cc3O)CC2)C1=O | 868
C=CCOC(=O)N1CCC(CNCc2cccc(-c3ccc(-c4nc5cccc(C)c5[nH]4)s3)c2)C1 (stereo not drawn) | 248
CCC(C)c1ccc(NC(=O)Nc2ccc(Cn3ncc(N4CCCNCC4)c(Cl)c3=O)cc2)cc1 (stereo not drawn) | 1030

SMILES | XC50 [nM]
O=C(NC1CCN(Cc2ccc(Cl)cc2)CC1)c1cn(-c2ccccc2)nc1-c1cccnc1 | 972
COc1ccc(CCN2CCC(Nc3nc4ccccc4n3CCc3ccc(OC)cc3)CC2)cc1 | 657
CS(=O)(=O)NCCCNCc1cccc(-c2cccc(-c3nc4cc(F)ccc4[nH]3)c2)c1 | 938
COc1ccc2c(OC)c(CNCCCCCCNCc3ccc4cc(OC)ccc4c3OC)ccc2c1 | 920
CCCCCCN1CCN(Cc2cccc(NC(=O)c3cccc(OCC)c3)c2)CC1 | 1110
CCCCC(=O)NC(c1cccs1)c1cc(Cl)c2cccnc2c1O (stereo not drawn) | 380
O=C(/C=C/c1ccc(Cl)c(Cl)c1)NCCCCCN1CCC(NC(=O)NC2CCCC2)CC1 | 631
CN(C)CCNC(=O)NC1CN(c2ncnc3cc(-c4ccccc4)sc23)C1 | 585
COc1ccc(-c2ccc(NC(=O)c3cccc(C#N)c3)cc2)cc1CN1CCN(C)CC1 | 713
COc1cc(Cc2cnc(N)nc2N)cc(OCCCCCCN)c1OC | 190
CC(=O)Nc1ccc(C(=O)Nc2cccc(-c3ccc(-c4nc5cc(F)ccc5[nH]4)cc3)c2)cn1 | 174
O=c1c2ccccc2[nH]c2cc(Cl)ccc12 | 873
Oc1ccc2c(c1CNC1CCCCC1)CCCC2 | 938
N#CC(NC(=O)C=Cc1ccccc1)c1ccccc1 (stereo not drawn) | 181
CC(=O)CC(=O)N1CCN(c2ccccc2)CC1 | 1060
Cc1[nH]c2ccccc2c1C1=CCN(CCCCC2(C)C(=O)Nc3ccccc32)CC1 (stereo not drawn) | 232
NCCNc1ccc([N+](=O)[O-])cc1C(=O)Nc1cccc(C(F)(F)F)c1 | 905
CC(C)c1ccc(CN2CCCCC(NC(=O)c3cc(-c4cccc(F)c4)cs3)C2)cc1 (stereo not drawn) | 945
Oc1ccc(CCNc2nc(NCCCOc3ccccc3-c3cccc(C(F)(F)F)c3)nc(N3CCNCC3)n2)cc1 | 882
O=C(Nc1cccc(C(F)(F)F)c1)Nc1ccc(Cl)c(C(F)(F)F)c1 | 890
N=C(N)Nc1nc(-c2ccc(NC(=O)Nc3cccc(-c4csc(NC(=N)N)n4)c3)cc2)cs1 | 1010
Clc1ccccc1CN1CCC(NCc2cccc(-n3ccnc3)c2)CC1 | 786
Cc1cc(NC(=O)Nc2ccc3sccc3c2)c2ccccc2n1 | 530
O=C(NCCCN1CCOCC1)c1csc(Nc2ccc(Cl)c(Cl)c2)n1 | 919
CNC(=O)c1ccc2nc(-c3ccc(-c4ccccc4)cc3)n(CC3CCN(CC4CCCC4)CC3)c2c1 | 42.5

SMILES | XC50 [nM]
Cc1c(Cl)cccc1S(=O)(=O)Nc1ccc(CCN2CCC(N)CC2)cc1 | 1460
COC(=O)Cn1c(C2CCN(CC3CCC(NC(=O)/C=C/c4ccc(Cl)c(Cl)c4)CC3)CC2)nc2ccccc21 (stereo not drawn) | 1140
CCc1c(C)nc(-n2nc(C)cc2NC(=O)c2ccc(OC)cc2OC)[nH]c1=O | 827
COc1ccc(NC(=O)c2c(NC(=O)c3cccs3)sc3c2CCCC3)cc1 | 448
NC1CCN(c2nc(NCCc3ccc(O)cc3)nc(NCc3ccccc3-c3ccc(C(F)(F)F)cc3)n2)CC1 | 746
Cc1nc2ccc(NC(=O)Nc3ccnc4ccc(C(F)(F)F)cc34)cc2o1 | 912
N=C(NCc1ccc(O)cc1)Nc1nc(-c2ccc(OCCCn3ccnc3)cc2)cs1 | 749
C#CCCOc1ccc2ccccc2c1CNCCCCCCNCc1c(OCCC#C)ccc2ccccc12 | 811
O=C(NCc1ccccc1)Nc1ccc(-c2cccc(-c3nc4cc(C(F)(F)F)ccc4[nH]3)c2)cc1 | 662
COc1cc(NCCCCNc2ccc(Cl)c(Cl)c2)nc2ccccc12 | 527
Cc1cccc2nc(-c3cccc(-c4ccc(NC(=O)Nc5ccc6c(c5)OCO6)cc4)c3)[nH]c12 | 145
O=C(Nc1ccccc1)Nc1cccc(-c2cccc(-c3nc4cc(F)ccc4[nH]3)c2)c1 | 176
CCOc1cc(C(=O)N[C@@H](Cc2ccccc2)[C@H](O)CNCc2cc(OC)cc(OC)c2)cc(N2CCCS2(=O)=O)c1 | 748
COc1ccc(NC(=O)Nc2ccc(-c3ccc(-c4nc5cccc(C)c5[nH]4)s3)cc2)cc1 | 175
O=C(/C=C/c1ccc(Cl)c(Cl)c1)N1CCC(CN2CCC(c3c[nH]c4ccccc34)C(O)C2)CC1 (stereo not drawn) | 809
O=C(Nc1ccccc1Oc1ccccc1)NC1CCN(c2ccnc3cc(Cl)ccc23)C1 (stereo not drawn) | 167
COCCN1CCN(Cc2cccc(-c3ccc(-c4nc5ccccc5[nH]4)cc3)c2)CC1 | 761
Oc1ccc(CN2CCN(CCOC(c3ccc(F)cc3)c3ccc(F)cc3)CC2)cc1Cl | 935
CCOC(=O)c1cnc2c(OC)cc(OC)c(Cl)c2c1Nc1cccc(C)c1C | 310
O=C(Nc1ccc(-c2cccc(-c3nc4cc(C(F)(F)F)ccc4[nH]3)c2)cc1)Nc1ccc(F)c(F)c1F | 706
Oc1cc(-c2nc(C3(CNCc4ccc(Cl)cc4)CCCCC3)[nH]c2-c2ccncc2)ccc1Cl | 125
COc1ccccc1C1CCN(CCCCNC(=O)c2ccc(NC(=O)c3ccc(Cl)cc3)cc2)CC1 | 244
C#CC(C)(CO)N1CCCC1 (stereo not drawn) | 379
